From article PMC9769880, “Diverse Sensory Repertoire of Paralogous Chemoreceptors Tlp2, Tlp3, and Tlp4 in Campylobacter jejuni” (Microbiology Spectrum, 2022)
“Also recorded” adds a separate entry of the source. Where two headings read alike, the source gives them in different places.

Legend:
Tlp3 [1] = target: T1, Tlp3 (Campylobacter jejuni, UniProt Q0P864); assay: biochemical; format: binding
Protocol: His-tagged proteins (Tlp2, -3, and -4) were prepared as previously described ([11]) DNA segments encoding the periplasmic sensory domains (33 to 286 amino acids) of Tlp2 and (38 to 297 amino acids) of Tlp4 were amplified (see Table S7), ligated into pGEM-T Easy (Promega) and subcloned into pET-19b (Novagen) (see Table S6). Recombinant proteins were expressed in E. coli BL21(DE3) using 1 mM IPTG (isopropyl-β-D-thiogalactopyranoside) and purified using His-select-nickel chromatography as described previously ([8], [11]). […] Protein concentrations were determined using a NanoDrop spectrophotometer (Thermo Fisher).
(§1) Surface plasmon resonance (SPR) experiments were performed as described previously ([10], [11]) with the following modifications. […] All ligands were prepared in PBS (pH 7.2) and serially diluted from 0.2 to 0.0125 mM. A 10-min dissociation period was allocated after the introduction of each analyte. SPR experiments were performed in single-cycle kinetics mode using the BIAcore S200 biosensor system (Cytiva) at 25°C in PBS (pH 7.2) at a flow rate of 30 μL/min. The equilibrium dissociation constant (KD) for each analyte was determined using BIAcore S200 Evaluation software with a report point 4 s after the injection stop to account for the bulk transfer of the small molecule against a large amount of immobilized protein (as shown in Fig. S5).

Tlp2 [2] = target: T2, Tlp2 (Campylobacter jejuni, UniProt Q0PBZ3); format: binding
Protocol: (§2) Glycan (>400 monosaccharides or complex glycans) and small molecule arrays containing amino acids and salts were performed as described previously by Day et al. ([67]). Briefly, 1 μg of purified recombinant protein was complexed with anti-His antibody (Cell Signaling Technology) and rabbit anti-mouse/goat anti-rabbit Alexa 555-IgG (Thermo Scientific) at a molar ratio of 1:0.5:0.25 and then incubated on the array for […] in phosphate-buffered saline (PBS). The array slides were scanned at 488/520 nm and analyzed using InnoScan 1100 with MAPIX software. All arrays were performed in triplicate with a total of 12 data points for each glycan tested; the complete data set and MIRAGE (i.e., minimum information regarding a glycomics experiment) results are shown in Tables S3 and S8.
(§3) Table S8 - Supplementary glycan microarray document based on M IRAGE guidelines. D O I:
(§4) Classification Guidelines
(§5) 1. Sample: Glycan Binding Sample
(§6) Origin: Helicobacter pylori SS1; produced as a recombinant His - tagged protein in E.
(§7) The preparation of Tlp2,3, and 4 is explained in the Materials and Methods section:
(§8) Expression and purification of the periplasmic domain of Tlp2,3, and 4.
(§9) Sample Sample is a His Tagged protein containing only the periplasmic receptor domain of the modifications full length Tlp2,3, and 4transmembrane protein.
(§10) Please see Materials and Methods: Tlps 2/3/4 bind to a range of ligands, including […]
(§11) Proteins were complexed with mouse anti- his antibody, with secondary and tertiary AlexaFluor555 antibodies (rabbit anti-mouse, goat anti-rabbit) at a molar ratio of 4:2:1.
(§12) The protein/antibody complex was incubated on ice for 10 mins prior to placing on the Assay protocol array. Arrays were performed with 1 µg of complexed protein incubated on the array for 20 min. Arrays were then washed 3 times in Array PBS (PBS + 2mM MgCl2 + 2mM CaCl2) then dried by centrifugation for 3 min at 300 x g . Scanning was performed us ing an Innopsys InnoScan 1100AL and analyzed using Mapix (Innopsys). Yes/no binding was determined by six positive replicate spots in three replicate experiments. Positive […]
(§13) Glycan Glycans in this study are listed in Table S2 and is a published library in doi:
(§14) Glycans were prepared in one of two ways for printing:
(§15) Glycan 1. Glycans (with IDs in number/letter format; e.g. 1A, 4C, 7K) were sourced modifications commercially from Dextra Laboratories, Elicityl and Carbosythn and were made into glycoamines using the protocol published in Day et al 2009 (doi:
(§16) Glycan arrays: We only use glycan arrays as a yes/no binding tool. Due to this we look only at binding that is unambiguously above background vs lack of binding above background. Average background + 3x standard deviation of the background of 20 sets of 4 spots of DMF:DMSO only spots is applied to determine if binding observed is […]
(§17) Only spots with values equal to or greater than this value were considered as binding from data of any tested slide. These values are slide […]
(§18) Data Small molecule arrays: We only use amino acid arrays as a yes/no binding tool. Due interpretation to this we look only at binding that is unambiguously above background vs lack of binding above background. Average background + 3x standard deviation of the background of 6 spots of PBS + 2% glycerol only spots is applied to determine if […]
(§19) Only spots with values equal to or greater than this value were considered as binding from data of any tested slide. These values are slide dependent. […]

Tlp4 [3] = target: T3, Tlp4 (Campylobacter jejuni, UniProt Q0PBP3); format: binding
Protocol: as §2, §3, §4, §5, §6, §7, §8, §9, §10, §11, §12, §13, §14, §15, §16, §17, §18, §19

Tlp2 [4] = target: T2, Tlp2; assay: biochemical; format: binding
Protocol: (§20) His-tagged proteins (Tlp2, -3, and -4) were prepared as previously described ([11]) DNA segments encoding the periplasmic sensory domains (33 to 286 amino acids) of Tlp2 and (38 to 297 amino acids) of Tlp4 were amplified (see Table S7), ligated into pGEM-T Easy (Promega) and subcloned into pET-19b (Novagen) (see Table S6). Recombinant proteins were expressed in E. coli BL21(DE3) using 1 mM IPTG (isopropyl-β-D-thiogalactopyranoside) and purified using His-select-nickel chromatography as described previously ([8], [11]). The purity of the proteins was confirmed by SDS-PAGE and Western blot analysis with anti-His antibodies (Bio-Rad). Protein concentrations were determined using a NanoDrop spectrophotometer (Thermo Fisher).
as §1, with “modifications. Briefly, purified proteins were diluted to 0.15 μM in sodium acetate (pH 4.0) and immobilized onto an active flow cell of a CM5 sensor chip with a flow rate of 5 μL/min for 7 min of contact time using a standard amine coupling protocol. Immobilized protein levels for all three proteins ranged from 6028.3 to 9779.3 response units (RU) providing a minimum expected response maximum (RMax) between 20 and 50 RU for the small molecules tested.” for “modifications.”

Tlp4 [5] = target: T3, Tlp4; assay: biochemical; format: binding
Protocol: as §20
as §1, with “modifications. Briefly, purified proteins were diluted to 0.15 μM in sodium acetate (pH 4.0) and immobilized onto an active flow cell of a CM5 sensor chip with a flow rate of 5 μL/min for 7 min of contact time using a standard amine coupling protocol. Immobilized protein levels for all three proteins ranged from 6028.3 to 9779.3 response units (RU) providing a minimum expected response maximum (RMax) between 20 and 50 RU for the small molecules tested.” for “modifications.”

Tlp3 [6] = target: T1, Tlp3; assay: Glycan/small molecule arrays with Tlp3; conditions: yes/no binding
Protocol: as §2, §3, §4, §5, §6, §7, §8, §9, §10, §11, §12, §13, §14, §15, §16, §17, §18, §19

Tlp2 [7] = format: cell-based, C. jejuni 11168-O; conditions: nutrient-depleted chemotaxis assay
Protocol: (§21) The biological relevance of the binding specificities of the Tlp2,3,4 cluster was assessed by examining chemotactic responses of C. jejuni 11168-O tlp2, tlp3, and tlp4 wild-type (WT) and mutant strains using a nutrient-depleted chemotaxis assay. All ligands, with the exception of lysine and cysteine, interacted with Tlp2 and Tlp4 as attractants (Table 1), showing an ~1- to ~2-log decrease (P < 0.05) in migration toward the ligand compared to the WT strain.
(§22) Chemotaxis assays—the nutrient-depleted chemotaxis assay and the modified hard agar plug assay (tHAP)—were performed as previously described ([11], [34]). The chemotactic responses of all isogenic strains were compared to that of the C. jejuni 11168-O wild-type strain to distinguish between chemoattractants and chemorepellents. For the nutrient-depleted chemotaxis and modified hard agar plug (tHAP) assays, all differences were calculated as changes on a log10 scale. Controls were provided by using nonmotile (C. jejuni 81116 flaAB) and nonchemotactic (C. jejuni NCTC 11168 cheY) mutants ([69]) and mucin as negative and positive controls ([10]).

Tlp3^LBD D169A = Tlp3^LBD D169A (Campylobacter jejuni, UniProt Q0P864, D169A); assay: biochemical
Tlp3^LBD W151A = Tlp3^LBD W151A (Campylobacter jejuni, UniProt Q0P864, W151A); assay: biochemical
Tlp3^LBD D170A = Tlp3^LBD D170A (Campylobacter jejuni, UniProt Q0P864); assay: biochemical
Tlp3 [8] = format: cell-based, C. jejuni 11168-O; conditions: chemotaxis of mutant compared to WT strain
Protocol: as §21, §22

Tlp3^LBD K149A = Tlp3^LBD K149A (Campylobacter jejuni, UniProt Q0P864, K149A); assay: biochemical
Tlp3^LBD D196A = Tlp3^LBD D196A (Campylobacter jejuni, UniProt Q0P864, D196A); assay: biochemical
[9] = SPR KD, mean ± SD, NB = no binding, read-out: Tlp3 Affinity
[10] = SPR KD, mean ± SD, NB = no binding, read-out: Tlp2 Affinity
[11] = SPR KD, mean ± SD, NB = no binding, read-out: Tlp4 Affinity

T3 sequence (Q0PBP3 entry or part of it): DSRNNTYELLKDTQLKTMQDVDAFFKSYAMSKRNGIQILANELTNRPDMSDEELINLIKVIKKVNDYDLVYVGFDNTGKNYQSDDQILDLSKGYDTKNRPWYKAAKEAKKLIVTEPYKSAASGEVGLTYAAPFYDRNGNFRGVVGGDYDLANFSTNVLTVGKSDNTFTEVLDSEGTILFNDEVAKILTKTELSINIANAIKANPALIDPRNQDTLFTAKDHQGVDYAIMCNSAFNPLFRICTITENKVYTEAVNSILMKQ
T2 sequence (Q0PBZ3 entry or part of it): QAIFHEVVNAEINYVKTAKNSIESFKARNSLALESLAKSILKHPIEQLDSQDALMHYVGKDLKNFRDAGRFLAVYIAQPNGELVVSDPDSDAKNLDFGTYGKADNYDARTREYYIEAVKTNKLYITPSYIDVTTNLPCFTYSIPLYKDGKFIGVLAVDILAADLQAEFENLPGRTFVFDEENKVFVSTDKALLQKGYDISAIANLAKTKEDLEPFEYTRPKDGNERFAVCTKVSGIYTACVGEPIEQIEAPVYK
T1 sequence (Q0P864 entry or part of it): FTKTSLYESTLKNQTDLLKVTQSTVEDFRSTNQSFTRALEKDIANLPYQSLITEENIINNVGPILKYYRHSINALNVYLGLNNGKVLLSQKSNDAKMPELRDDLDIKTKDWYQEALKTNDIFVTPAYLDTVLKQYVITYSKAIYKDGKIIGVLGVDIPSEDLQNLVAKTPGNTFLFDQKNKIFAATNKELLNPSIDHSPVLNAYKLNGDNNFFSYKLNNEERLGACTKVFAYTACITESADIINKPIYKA
Chain of Tlp3^LBD D170A (Q0P864 41-290 T170A): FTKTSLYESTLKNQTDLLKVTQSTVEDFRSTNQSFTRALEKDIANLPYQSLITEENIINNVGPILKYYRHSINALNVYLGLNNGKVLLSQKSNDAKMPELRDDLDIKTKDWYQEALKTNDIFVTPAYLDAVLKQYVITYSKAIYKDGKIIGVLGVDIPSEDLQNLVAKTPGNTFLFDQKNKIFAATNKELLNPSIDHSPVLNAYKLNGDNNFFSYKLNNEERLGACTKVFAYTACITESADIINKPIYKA
Chain of Tlp3^LBD W151A (Q0P864 41-290 W151A): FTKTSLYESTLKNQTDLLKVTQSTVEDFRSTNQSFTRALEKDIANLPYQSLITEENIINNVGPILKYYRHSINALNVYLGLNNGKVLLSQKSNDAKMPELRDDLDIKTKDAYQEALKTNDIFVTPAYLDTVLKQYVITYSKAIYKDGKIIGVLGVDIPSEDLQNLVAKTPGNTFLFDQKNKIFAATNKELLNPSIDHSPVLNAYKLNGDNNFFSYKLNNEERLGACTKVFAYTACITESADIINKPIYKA
Chain of Tlp3^LBD D196A (Q0P864 41-290 D196A): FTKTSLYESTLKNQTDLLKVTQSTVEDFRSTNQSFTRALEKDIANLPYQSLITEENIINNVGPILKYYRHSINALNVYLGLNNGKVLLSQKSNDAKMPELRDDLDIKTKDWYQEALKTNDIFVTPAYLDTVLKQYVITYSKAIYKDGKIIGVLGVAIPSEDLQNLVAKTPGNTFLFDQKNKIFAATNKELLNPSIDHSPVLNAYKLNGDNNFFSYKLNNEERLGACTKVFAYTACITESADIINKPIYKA
Chain of Tlp3^LBD K149A (Q0P864 41-290 K149A): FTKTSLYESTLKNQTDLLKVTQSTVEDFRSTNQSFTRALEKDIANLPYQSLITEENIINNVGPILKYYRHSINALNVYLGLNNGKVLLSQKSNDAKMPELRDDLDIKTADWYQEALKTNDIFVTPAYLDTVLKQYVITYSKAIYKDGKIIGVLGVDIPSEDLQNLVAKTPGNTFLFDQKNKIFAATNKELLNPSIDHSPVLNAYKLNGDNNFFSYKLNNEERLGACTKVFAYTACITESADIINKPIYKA
Chain of Tlp3^LBD D169A (Q0P864 41-290 D169A): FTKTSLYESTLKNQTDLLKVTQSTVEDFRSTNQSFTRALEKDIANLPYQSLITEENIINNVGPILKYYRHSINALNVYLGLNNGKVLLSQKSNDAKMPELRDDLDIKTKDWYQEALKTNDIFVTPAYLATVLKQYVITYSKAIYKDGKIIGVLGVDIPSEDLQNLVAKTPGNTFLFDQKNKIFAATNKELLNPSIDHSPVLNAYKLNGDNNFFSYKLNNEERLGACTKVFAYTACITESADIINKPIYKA

SMILES	Kd (Tlp3 [1]; [9])	binding to Tlp2 on glycan/small molecule array (Tlp2 [2]; yes/no binding)	binding to Tlp4 on glycan/small molecule array (Tlp4 [3]; yes/no binding)	Kd (Tlp2 [4]; [10])	Kd (Tlp4 [5]; [11])	binding to Tlp3 on glycan/small molecule array (Tlp3 [6])	binding to Tlp2 on glycan/small molecule array (Tlp2 [2])	binding to Tlp4 on glycan/small molecule array (Tlp4 [3])	Kd (Tlp2 [4])	Kd (Tlp4 [5])	other results
NC(=O)C[C@H](N)C(=O)O [Asparagine]	> 200 µM	bound	bound	12.8 ± 5.1 µM	45.1 ± 6.1 µM	–	–	–	–	–	–
N[C@@H](CC(=O)O)C(=O)O [Aspartate]	–	–	–	–	–	bind specifically	bound	bound	95.4 ± 0.9 µM	75.3 ± 8.1 µM	–
N[C@@H](CS)C(=O)O [Cysteine]	> 200 µM	bound	bound	10.8 ± 3.3 µM	5.7 ± 5.8 µM	–	–	–	–	–	chemotactic response via Tlp2 (Tlp2 [7]): did not generate any significant chemotactic response; also recorded: did not affect the chemotactic movement
O=C[C@H](O)[C@@H](O)[C@@H](O)[C@H](O)CO [Galactose]	–	–	–	–	–	interacted	interacted	interacted	17.2 ± 1.3 µM	18.3 ± 2.1 µM	–
N[C@H]1C(O)O[C@H](CO)[C@@H](O)[C@@H]1O (stereo partly drawn) [Glucosamine]	–	–	–	> 200 µM	> 200 µM	–	–	–	–	–	Kd (Tlp3^LBD D169A): 38.4 ± 6.45 µM; Kd (Tlp3^LBD W151A): 34.3 ± 12.7 µM; Kd (Tlp3^LBD D170A): 39.7 ± 8.6 µM; Kd (Tlp3 [1]): 7.1 ± 2.9 µM; Tlp3 CR (chemoresponse) (Tlp3 [8]): R; Kd (Tlp3^LBD K149A): 24.3 ± 2.1 µM; Kd (Tlp3^LBD D196A): 45.5 ± 7.3 µM
